Where no end group is shown, it is not given here.

Experimental findings from patent US20080200393A1, “Method and Composition For Treating Angiogenesis and For Preventing Cancer Progression and Metastasis Comprising a Prostate Secretory Protein (Psp94) Family Member” (Ambrillia Biopharma Inc., priority 2004, published 2008) are described below.

What all share (type): cell-based
One assay has as its system MMP-9. The experiment in a line: Western blot of MMP-9 in MatLyLu cell culture media. Conditions: MatLyLu cells, 100 ug/ml, 500 ug/ml and 1 mg/ml, 72 hrs. The procedure: A separate western blot experiment was performed in which MatLyLu cells were treated with 100 ug/ml, 500 ug/ml and 1 mg/ml of the PCK3145 derivative for 72 hrs. At the end of the experiment, the media were collected and concentrated 5 times using Amicon centrifugal filter devices (3500 molecular weight cut-off).
Twenty five microliters samples were separated on SDS-PAGE gel under reducing conditions using pre-cast gels of 4-12% Bis-Tris (Invitrogen). Following electrophoresis, the proteins were transferred on nitrocellulose membrane. Non-specific binding sites were blocked using 5% skimmed milk in 10 mM phosphate buffer saline (PBS) containing 0.05% Tween-20 for 1 hour at room temperature. The membrane was later incubated with a primary antibody (monoclonal, RDI-MMP-9abm-2A5) at a concentration of 1 ug/ml (in 10 mM PBS, containing 0.5% bovine serum albumin (BSA) and 0.05% Tween-20) for 3 hours at room temperature.
The membranes were washed three times in PBS (5 minutes each wash) to remove non-specific binding and they were incubated with the secondary antibody (Rabbit anti-mouse IgG horseradish peroxidase-conjugated (Dako no. 0260)) at a dilution of 1:5000 for one hour. Detection of specific MMP-9 protein was made by incubating the membrane in ECL™ reagent (electro-chemoluminescence, Roche) and exposing to the X-ray film.

For another assay, the system named is ERK. The experiment in a line: PDGF-induced ERK phosphorylation in PASMC. The procedure: Cell culture. Human umbilical vein endothelial cells (HUVEC) and pulmonary aortic smooth muscle cells (PASMC) were obtained from Clonetics and maintained in endothelial cell basal medium-2 (EBM-2; Clonetics) and smooth muscle medium-2 (SmGM-2; Clonetics), respectively. Cells were cultured at 37° C. under a humidified atmosphere containing 5% CO2. For experimental purposes, cells were plated in 8 100-mm plastic dishes at 5,000 cells/cm^2 and were grown to confluence before overnight serum starvation. Cells were treated with vehicle or with a PCK3145 derivative diluted in 0.1 N NaOH, and stimulated with 50-100 ng/ml VEGF or PDGF, with 10 ng/ml of bFGF (basic fibroblast growth factor) or with 1 μM S1P (sphingosine-1-phosphate).
Immunoprecipitation and immunoblotting procedures. After treatment, cells were washed once with phosphate-buffered saline (PBS) containing 1 mM sodium orthovanadate and were incubated in the same medium for 1 h at 4° C. […] The cells were then scraped from the culture dishes and the resulting lysates were clarified by centrifugation at 10,000 g for 10 min; Protein concentrations were determined using the micro bicinchoninic acid method (Pierce). […] The immunoreactive bands were quantified by scanning densitometry (Molecular Dynamics). […]

In the next assay the test system is glioma cells (U-87). The experiment in a line: SEAP gene-reporter assay (Mercury Profiling Kit). As to the method: In order to investigate the potential intracellular pathways triggered by the PCK3145 derivative, a gene-reporter assay using the SEAP (Secreted Alkaline Phosphatase) Mercury Profiling Kit (CLONTECH) was performed in glioma cells (U-87). This assay enables the monitoring of transcription factors that are triggered by a particular experimental condition by assaying the alkaline phosphatase activity in the extracellular media.

The next assay concerns CD44. The assay is described as follows: CD44 cell surface shedding (Western blot of conditioned media). Conditions: serum-starved U-87, 300 ug/ml, 24 hours. As to the method: Decreased cell migration and adhesion on HA was observed when U-87 cells were pretreated with the PCK3145 derivative. This can be interpreted as either a potential downregulation of CD44 expression at the cell surface or by a potential cell surface shedding. The latter hypothesis was tested by incubating serum-starve U-87 cells for 24 hours with the PCK3145 derivative (300 ug/ml), a concentration known to antagonize MMP secretion. The conditioned media was then TCA-precipitated and Westernblotting an immunodetection for a 75 kDa immunoreactive protein using the anti-CD44 antibody was performed. […] This effect is also shown in parallel with MT1-MMP-transfected cells. Such effect has been already reported by many groups and is established as one of the MT1-MMP-mediated functions in the regulation of the ECM adhesion. […] This induction has subsequently been reproduced below. Altogether, these observations provide a rational for the diminished cell migration/adhesion to HA.
A general note: In western blotting, separated proteins are transferred to a membrane and probed.

With “EWQTDNCETCTCYET (cysteine pairing not given here) [PCK3145 derivative, PCK3145 derivative with acetylaminomethyl groups on the three cysteines]”, the “MMP-9 levels (western blot)” value with MMP-9 is recorded as “dose-dependent reduction”. The “PDGF-induced ERK phosphorylation” value with ERK is “inhibition”. For the same sequence, in the assay on glioma cells (U-87), the “MAPK/JNK pathway (SRE), SEAP reporter” value is “triggers significantly”; the “NFkB pathway, SEAP reporter” value is listed as “triggers significantly”; the “secretion of the constitutively expressed SEAP” value is recorded as “inhibited”. Moreover, the “CD44 cell surface shedding” value with CD44 was “increased”.
